Data reported in US12497365B2, “4-pyridinyl formamide compound or derivative thereof, preparation method therefor, herbicidal composition and use thereof” (Qingdao Kingagroot Chemical Compound Co., Ltd., priority 2019, dated 2025).

Assays:
Assay in all cases: Weeding effect in post-emergence stage
Format in all cases: in vivo
Settings in all cases: active ingredient 2000 g/ha, 3 weeks after application, fresh weight control rate
[1] = tested on: Abutilon theophrasti
In short: (§1)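 Pot-grown weeds at the 2-3 leaf stage receive a tower spray of test compound at 2000, 1000, 500, 250 or 125 g/ha, formulated in acetone with Tween 80 and methyl oleate synergist. Fresh weight reduction is rated on an activity scale 3 weeks later.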

[2] = tested on: Amaranthus retroflexus L.
In short: as §1

[3] = tested on: Chenopodium album
In short: as §1

[4] = tested on: Descurainia sophia
In short: as §1

Structure (SMILES) | Weeding effect, activity level (growth control rate), Abutilon theophrasti [1] | Weeding effect, activity level (growth control rate), Amaranthus retroflexus L. [2] | Weeding effect, activity level (growth control rate), Chenopodium album [3] | Weeding effect, activity level (growth control rate), Descurainia sophia [4]
Cn1nnnc1NC(=O)c1ccnc(-c2ccnn2C(F)F)c1Cl [Compound 1-181] | 5 (Level 5: growth control rate is above 85%) | 5 (Level 5: growth control rate is above 85%) | 5 (Level 5: growth control rate is above 85%) | 5 (Level 5: growth control rate is above 85%)
C#Cc1c(C(=O)Nc2nnnn2C)ccnc1-c1ccc(F)cc1 [Compound 1-220] | 5 (Level 5: growth control rate is above 85%) | 5 (Level 5: growth control rate is above 85%) | 5 (Level 5: growth control rate is above 85%) | 5 (Level 5: growth control rate is above 85%)
Cn1nnnc1NC(=O)c1ccnc(-c2nccs2)c1Cl [Compound 1-230] | 5 (Level 5: growth control rate is above 85%) | 5 (Level 5: growth control rate is above 85%) | 5 (Level 5: growth control rate is above 85%) | 5 (Level 5: growth control rate is above 85%)
Cn1nnnc1NC(=O)c1ccnc(-c2ccccc2)c1Cl [Compound 1-8] | 5 (Level 5: growth control rate is above 85%) | 5 (Level 5: growth control rate is above 85%) | 5 (Level 5: growth control rate is above 85%) | 5 (Level 5: growth control rate is above 85%)
CC(C)=NOc1c(C(=O)Nc2nnnn2C)ccnc1-c1ccc(F)cc1 [Compound 1-209] | 5 (Level 5: growth control rate is above 85%) | 5 (Level 5: growth control rate is above 85%) | 5 (Level 5: growth control rate is above 85%) | 5 (Level 5: growth control rate is above 85%)
Cn1nnnc1NC(=O)c1ccnc(-c2ccc(C=O)s2)c1Cl [Compound 1-190] | 5 (Level 5: growth control rate is above 85%) | 5 (Level 5: growth control rate is above 85%) | 5 (Level 5: growth control rate is above 85%) | 5 (Level 5: growth control rate is above 85%)
COc1c(C(=O)Nc2nnnn2C)ccnc1-c1ccc(C#N)cc1 [Compound 1-2029] | 5 (Level 5: growth control rate is above 85%) | 5 (Level 5: growth control rate is above 85%) | 5 (Level 5: growth control rate is above 85%) | 5 (Level 5: growth control rate is above 85%)
Cn1nnnc1NC(=O)c1ccnc(-c2cnn(Cc3ccccc3)c2)c1Cl [Compound 1-175] | 5 (Level 5: growth control rate is above 85%) | 5 (Level 5: growth control rate is above 85%) | 5 (Level 5: growth control rate is above 85%) | 5 (Level 5: growth control rate is above 85%)
CC(C)Sc1ccc(-c2nccc(C(=O)Nc3nnnn3C)c2Cl)cc1 [Compound 1-43] | 5 (Level 5: growth control rate is above 85%) | 5 (Level 5: growth control rate is above 85%) | 5 (Level 5: growth control rate is above 85%) | 5 (Level 5: growth control rate is above 85%)
Cn1nnnc1NC(=O)c1ccnc(-c2ccnc(F)c2)c1Cl [Compound 1-149] | 5 (Level 5: growth control rate is above 85%) | 5 (Level 5: growth control rate is above 85%) | 5 (Level 5: growth control rate is above 85%) | 5 (Level 5: growth control rate is above 85%)
COC(C)c1c(C(=O)Nc2nnnn2C)ccnc1-c1ccc(F)cc1 (stereo not shown) [Compound 1-215] | 5 (Level 5: growth control rate is above 85%) | 5 (Level 5: growth control rate is above 85%) | 5 (Level 5: growth control rate is above 85%) | 5 (Level 5: growth control rate is above 85%)
CCC[S+]([O-])c1nccc(C(=O)Nc2nnnn2C)c1Cl (stereo not shown) [Compound 1-2070] | 5 (Level 5: growth control rate is above 85%) | 5 (Level 5: growth control rate is above 85%) | 5 (Level 5: growth control rate is above 85%) | 5 (Level 5: growth control rate is above 85%)
Cn1nnnc1NC(=O)c1ccnc(-c2cc(C(C)(C)C)cc(C(C)(C)C)c2)c1Cl [Compound 1-61] | 5 (Level 5: growth control rate is above 85%) | 5 (Level 5: growth control rate is above 85%) | 5 (Level 5: growth control rate is above 85%) | 5 (Level 5: growth control rate is above 85%)
CCOc1c(C(=O)Nc2nnnn2C)ccnc1-c1ccc(F)cc1 [Compound 1-201] | 5 (Level 5: growth control rate is above 85%) | 5 (Level 5: growth control rate is above 85%) | 5 (Level 5: growth control rate is above 85%) | 5 (Level 5: growth control rate is above 85%)
Cn1nnnc1NC(=O)c1ccnc(-c2ccc(F)nc2)c1Cl [Compound 1-132] | 5 (Level 5: growth control rate is above 85%) | 5 (Level 5: growth control rate is above 85%) | 5 (Level 5: growth control rate is above 85%) | 5 (Level 5: growth control rate is above 85%)
Cn1nnnc1NC(=O)c1ccnc(C2=CCCCC2)c1Cl [Compound 1-5] | 5 (Level 5: growth control rate is above 85%) | 5 (Level 5: growth control rate is above 85%) | 5 (Level 5: growth control rate is above 85%) | 5 (Level 5: growth control rate is above 85%)
Cn1nnnc1NC(=O)c1ccnc(-c2ccc(OC3CCCCO3)cc2)c1Cl (stereo not shown) [Compound 1-51] | 5 (Level 5: growth control rate is above 85%) | 5 (Level 5: growth control rate is above 85%) | 5 (Level 5: growth control rate is above 85%) | 5 (Level 5: growth control rate is above 85%)
Cn1nnnc1NC(=O)c1ccnc(-c2ccc(C(=O)O)cc2)c1Cl [Compound 1-39] | 5 (Level 5: growth control rate is above 85%) | 5 (Level 5: growth control rate is above 85%) | 5 (Level 5: growth control rate is above 85%) | 5 (Level 5: growth control rate is above 85%)
Cn1nnnc1NC(=O)c1ccnc(-c2ccc(Br)nc2F)c1Cl [Compound 1-140] | 5 (Level 5: growth control rate is above 85%) | 5 (Level 5: growth control rate is above 85%) | 5 (Level 5: growth control rate is above 85%) | 5 (Level 5: growth control rate is above 85%)
Cn1nnnc1NC(=O)c1ccnc(-c2cn[nH]c2)c1Cl [Compound 1-167] | 5 (Level 5: growth control rate is above 85%) | 5 (Level 5: growth control rate is above 85%) | 5 (Level 5: growth control rate is above 85%) | 5 (Level 5: growth control rate is above 85%)
Cc1cc(-c2nccc(C(=O)Nc3nnnn3C)c2Cl)n(C)n1 [Compound 1-179] | 5 (Level 5: growth control rate is above 85%) | 5 (Level 5: growth control rate is above 85%) | 5 (Level 5: growth control rate is above 85%) | 5 (Level 5: growth control rate is above 85%)
Cn1nnnc1NC(=O)c1ccnc(-c2ccc(F)cc2)c1SCCl [Compound 1-211] | 5 (Level 5: growth control rate is above 85%) | 5 (Level 5: growth control rate is above 85%) | 5 (Level 5: growth control rate is above 85%) | 5 (Level 5: growth control rate is above 85%)
